Assays:
[1] = tested on: A549 xenografts; assay: A549 xenograft mouse model, paclitaxel treatment; assay type: in vivo, nude mice
Procedure: (FIG. 5A) A suspension of A549 cells was injected subcutaneously into the flank of a nude mouse. When the average tumor volume was at least 120 mm^3, vehicle or paclitaxel (15 mg/kg) was administered intraperitoneally every other day. Treatment was continued until tumors reached approximately four times their initial volume. Paclitaxel-refractory, as well as vehicle-treated tumors, were digested with collagenase and cultured in vitro (adapted from Norman E et al. Nature Reviews Drug Discovery 2006; 5: 741-754). (FIG. 5B) Tumor growth was determined as the tumor volume on the day of treatment relative to the tumor volume at the start of treatment and presented as a ratio. Each line represents the growth of an individual tumor (T) in an individual mouse (indicated by a number). Groups of mice are separated into control, paclitaxel-responsive and paclitaxel non-responsive (continuous tumor growth in the presence of paclitaxel) groups. […] (FIG. 5C) Vehicle-treated tumors (hatched bars) or paclitaxel-refractory tumors (black bars) were harvested from mice and used to generate two cell lines per tumor. The indicated cell lines were cultured in vitro and cell viability was assessed 72 h after paclitaxel addition using the MTT assay. Bars represent average LC50±s.e.m. from triplicate experiments.
Nude mice were inoculated with A549 cells. At an average tumor volume of ˜120 mm^3, vehicle control and 10 mg/kg (FIG. 10A) or 12.5 mg/kg (FIG. 10B) paclitaxel was administered i.p. every day. Each curve represents the tumor volume on the day of treatment relative to day 0 per mouse.
To further establish the role of miR-135a in paclitaxel response, the A549 xenograft mouse model was adapted from the protocol previously described by Patel et al., 2010. Briefly, nude mice bearing subcutaneous A549 xenografts were injected intraperitoneally with either vehicle or 15 mg/kg paclitaxel until tumors that responded initially began to regrow (FIG. 5A). […] After 120 days of paclitaxel treatment, control and paclitaxel-refractory tumors were harvested. Within two passages in vitro, RNA was harvested for miRNA evaluation and determination of paclitaxel response.
Approximately 4×10^6 human A549 NSCLC cells were resuspended in 50% Matrigel (BD Biosciences, Bedford, Mass.) and injected subcutaneously into the hind flanks of 8-wk old male athymic (nu/nu) nude mice (Taconic Farms, Inc., Hudson, N.Y.). […] Tumor size was determined by digital caliper measurements (length and width in mm), and tumor volume (mm^3) was estimated using the formula (length×width^2)/2. Effects on tumor growth rate were assessed per mouse by determining the tumor volume on the day of treatment relative to the tumor volume on Day 0. […]

[2] = tested on: A549 cells overexpressing miR-135a; assay: Xenograft of A549 cells stably overexpressing miR-135a, paclitaxel treatment; assay type: in vivo, nude mice; details: paclitaxel three times a week for 3 weeks
Procedure: A549 cells stably expressing either non-targeting premiR (A549-control) or premiR-135a (A549-miR-135a) were generated. (FIG. 8A) miR-135a expression level in A549-control and -miR-135a was determined and compared with A549 and A549TR cells using qRT-PCR analysis. *P<0.01. (FIG. 8B) Paclitaxel response of A549-control and A549-premiR-135a cells was determined using the MTT assay. (FIG. 8C) APC protein expression was examined using western blot analysis in A549-control and -premiR-135a cells. (FIG. 8D) A549-control and -premiR-135a cells were inoculated subcutaneously into the flanks of nude mice. Paclitaxel treatment was given three times a week for 3 weeks. The tumor size in each group was measured during the course of treatment and was calculated, relative to the size before treatment initiation. Each curve represents the average tumor growth±s.e.m. for 10 mice per group. **P<0.001 as determined by Wilcoxon's rank sum test.
The inventors subsequently investigated the role of miR-135a in paclitaxel sensitivity in vivo. […] As expected, miR-135a […] attenuated paclitaxel-induced cell death (FIG. 8B) and APC protein expression (FIG. 8C) relative to control transfected A549 cells in vitro. […] Paclitaxel treatment was given three times a week for 3 weeks, and tumor size in each group was monitored during the course of treatment. […]

[3] = tested on: A549 cells; assay: cells; assay type: cell-based; details: Homo sapiens, A549, read-out: median LC50
Procedure: The paclitaxel-resistant cell lines MES-SA^DX5 and A549^TR were transfected with a scrambled non-targeting miRNA (control) and an miR-135a mimic (mimic), respectively. Cells were subsequently treated with 100 nM paclitaxel and cell viability was assessed using the MTT assay (FIGS. 2A, 2B). The percentage of apoptotic cells was assessed by Annexin V-staining and FACS analysis (FIGS. 2C, 2D). Values are presented as percent cell survival in paclitaxel-treated cells relative to untreated cells. *P<0.05, **P<0.001 as determined by Wilcoxon's rank sum test.
FIGS. 4A-4E are a series of micrographs and line graphs showing that miR-135a-mediated APC suppression contributes to paclitaxel resistance. […] Transfected A549 (FIG. 4B) and MES-SA (FIG. 4C) cells were treated with paclitaxel and viability was assessed using the MTT assay. […] (FIG. 4E) Both A549-shCON and -shAPC cells were treated with paclitaxel and cell viability was measured using the MTT assay. […]
(FIG. 7A). The parental A549 cells, a cell line that became refractory during in vivo treatment with paclitaxel (T20.2 round 1) and the same cell line established after yet another round of in vivo paclitaxel treatment (T20.2 reinjection) were treated with paclitaxel and cell viability was assessed using the MTT assay. […] (FIG. 7B) The expression of miR-135a was examined in these cells by qRT-PCR. *P<0.05 as determined by Wilcoxon's rank sum test. […]

CC(=O)O[C@H]1C(=O)[C@@]2(C)[C@H]([C@H](OC(=O)c3ccccc3)[C@]3(O)C[C@H](OC(=O)[C@H](O)[C@@H](NC(=O)c4ccccc4)c4ccccc4)C(C)=C1C3(C)C)[C@]1(OC(C)=O)CO[C@@H]1C[C@@H]2O [paclitaxel]
generation of paclitaxel-refractory tumors ([1]; 10 mg/kg paclitaxel i.p.): did not generate any paclitaxel-refractory tumors
generation of paclitaxel-refractory tumors ([1]; 12.5 mg/kg paclitaxel i.p.): did not generate any paclitaxel-refractory tumors
mice with prolonged response ([1]; 15 mg/kg paclitaxel intraperitoneally): 7 out of 10
mice that became paclitaxel-refractory ([1]; 15 mg/kg paclitaxel intraperitoneally, continued treatment): 3 out of 10
in vivo growth under paclitaxel exposure [2]: not reduced
CC50 [3]: 1.14 nM
